Laboratory results from US20220088121A1, “COMPOSITIONS CONTAINING A PEPTIDE ABLE TO STIMULATE THE GPRC6A-DEPENDENT SIGNALING PATHWAY” (Altergon S.A., priority 2019, published 2022).

What was measured:
[1] = tested on: MA-10 mouse Leydig cell tumour cell lines; assay: Testosterone release from MA-10 mouse Leydig-cell tumour cell cultures; format: cell-based; details: experimental models of cell line cultures; Example 1: peptide 10^−6M, 12 hours at 37° C. (FIG. 1)
Method: MA-10 mouse Leydig-cell tumour cells, cultured to 90% confluence in 24-well multiwell plates, were stimulated with different agonists for 12 hours at 37° C. under sterile conditions, according to an already validated protocol [Cormier Cell Biol Toxicol. […] The control (CTRL) contained no agonists. The results relate to testosterone release, expressed as ng of testosterone (T) per μg of total protein, obtained from cell extract. […] Significance: *=P<0.05 vs. CTRL.
MA-10 mouse Leydig-cell tumour cells, cultured to 90% confluence in 24-well multiwell plates, were stimulated with different agonists for 12 hours at 37° C. under sterile conditions, according to an already validated protocol [Cormier Cell Biol Toxicol. […] Significance: *, ** and ***=P<0.05, 0.01 and 0.001 respectively vs the baseline control.

[2] = tested on: INS-1 rat insulinoma cells; assay: Insulin release from INS-1 insulinoma cell cultures; format: cell-based; details: experimental models of cell line cultures
Method: INS-1 rat insulinoma cells, cultured to 90% confluence in 24-well multiwell plates, were stimulated with different combinations of secretagogue agonists for 2 hours at 37° C. under sterile conditions, according to an already validated protocol [Hohmeier Diabetes. […] Stimulation with the phosphodiesterase inhibitor IBMX (Gluc 1 mM+IBMX) represents the maximum secretagogue stimulation and positive control of the experiment. […] Significance: *, ** and ***=P<0.05, 0.01 and 0.001 respectively vs the baseline control.

Which testosterone release [1] does the source give for NMYLPPVPPPPVVPTF [SEQ ID 1] here?
Its testosterone release is “stimulates”.

And the insulin release [2]?
Its insulin release is “stimulates”.
